{
  "source": "patent US20120207753A1",
  "about": "“METHODS OF USING CD44 FUSION PROTEINS TO TREAT CANCER” (CENTRE HOSPITALIER UNIVERSITAIRE VAUDOIS, priority 2009, published 2012)",
  "key": {"U87MG cells": {"test_system": "U87MG cells", "assay": "Intracranial tumor growth and survival, transduced U87MG cells in Rag-1 mice", "format": "in vivo, human", "settings": "single dose BCNU 10 mg/kg iv or TMZ 5 mg/kg ip", "method": "(§1) FIG. 12. Antagonists of CD44 are effective therapeutic agents against human GBM in mouse models. A, U87MG and U251 cells were transduced with the retroviruses carrying empty vector and the expression constructs of hsCD44s-Fc, hsCD44v8-v10-Fc, and hsCD44v3-v10 and their serum free cell culture supernatants were collected and analyzed on Western blots using anti-CD44 antibody (Santa Cruz) or anti-human IgG antibody. The molecular weight bars correspond to 199 kDa and 116 kDa. B, 2×10^6 of the transduced U87MG and U251 cells were injected subcutaneously per mouse. Growth rates of the subcutaneous tumors were determined and expressed as the mean of tumor volume (mm^3)+/−SD. Six mice were used for each construct. C, Survival rates of mice following the intracranial injections of transduced U87MG (C-a) and U251 (C-b-c) cells infected with the retroviruses carrying the empty expression vectors, hsCD44s-Fc, hsCD44v8-v10-Fc, hsCD44v3-v10, hsCD44sR41A-Fc, or hsCD44v3-v10R41A-Fc constructs as indicated in the panels. […]\n(§2) Mice were used in accordance with the approved IACUC Protocol. […] Following injection, mice were closely monitored and the duration of their survival was recorded. […] Number of surviving mice was recorded. The survival rates were calculated as follows: survival rate (%)=(number of mice still alive/total number of experimental mice)×100%. […]"}, "U251 cells": {"test_system": "U251 cells", "assay": "Intracranial tumor growth and survival, transduced U251 cells in Rag-1 mice", "format": "in vivo, human", "settings": "single dose BCNU 10 mg/kg iv or TMZ 5 mg/kg ip", "method": "as §1, §2"}},
  "data": [
    {"smiles": "O=NN(CCCl)C(=O)NCCCl", "note": "[BCNU, carmustine]", "values": [
      {"measurement": "inhibition of intracranial glioma formation (median survival), drug combined with CD44 knockdown", "setting": "U87MG cells; intracranial U87MG-Luc depleted of CD44", "value": "synergistic inhibition of intracranial glioma formation"},
      {"measurement": "inhibitory effect on glioma growth as single agent", "setting": "U87MG cells; intracranial U87MG-Luc", "value": "weak"},
      {"measurement": "inhibition of intracranial glioma formation (median survival), drug combined with CD44 knockdown", "setting": "U251 cells; intracranial U251-Luc depleted of CD44", "value": "synergistic inhibition of intracranial glioma formation"},
      {"measurement": "inhibitory effect on glioma growth as single agent", "setting": "U251 cells; intracranial U251-Luc", "value": "weak"}
    ]}
  ]
}
